The record followed here is patent US20100144793A1, “NOVEL COMPOUNDS FOR THE TREATMENT OF DISEASES ASSOCIATED WITH AMYLOID OR AMYLOID-LIKE PROTEINS” (AC IMMUNE SA, priority 2006, published 2010).

What all share (assay type): biochemical
Assay [1] deals with T1, preformed Aβ1-42 fibers (Homo sapiens, UniProt P05067).
T1 construct: Aβ1-42 lyophilized powder (Bachem) was reconstituted in hexafluoroisopropanol (HFIP) to 1 mM; purchased Bachem
Put plainly: Thioflavin T spectrofluorescence assay: disaggregation of preformed Aβ1-42 fibers. The conditions noted are these: Table 5; 330 μM small molecule, 10:1 molar ratio to pre-aggregated Aβ1-42, additional 24 h at 37° C.; mean ± SD of two independent experiments. How it is done:
(§1) The objective of this example was to evaluate the capacity of the compounds of the invention to inhibit the aggregation of (Aβ)1-42 peptide and to disaggregate pre-aggregated Aβ1-42 using a thioflavin T spectrofluorescence assay.
(§2) Aβ1-42 lyophilized powder (Bachem) was reconstituted in hexafluoroisopropanol (HFIP) to 1 mM. The peptide solution was sonicated for 15 min at room temperature, agitated overnight, and aliquots were placed into non-siliconized microcentrifuge tubes. The HFIP was then evaporated under a stream of argon. The resulting peptide film was dried under vacuum for 10 min, tightly sealed and stored at −80° C. until used.
This solution was then allowed to aggregate at 37° C. for 24 h after which a small molecule and ThT were added to obtain a final concentration of 330 μM small molecule and 10 μM ThT. […] This solution was then incubated for additional 24 h at 37° C. The spectrofluorescence was then measured and % disaggregation calculated. Disaggregation is expressed as mean % disaggregation±1 standard deviation (SD) according to the same equation as for the inhibition of aggregation.

The target of assay [2] is T2, Aβ1-42 (Homo sapiens, UniProt P05067).
T2 construct: Aβ1-42 lyophilized powder (Bachem) was reconstituted in hexafluoroisopropanol (HFIP) to 1 mM; purchased Bachem
T2 sequence (P05067 672-713 limits assumed): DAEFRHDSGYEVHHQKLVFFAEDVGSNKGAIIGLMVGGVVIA
The assay can be described thus: Thioflavin T spectrofluorescence assay: inhibition of Aβ1-42 aggregation. The conditions noted are these: 24 h. Here is the method:
as §1, §2
Aβ1-42 peptide film was dissolved in DMSO to reach 400 μM. Assay solution in PBS was prepared in non-siliconized incubation tubes to reach the following concentrations: 330 μM small molecule, 33 μM Aβ1-42, 10 μM thioflavin T (ThT), and 12.8% DMSO. Therefore, the final molar ratio of small molecule to Aβ1-42 was 10:1. A positive control without a small molecule was prepared to measure maximum RFU. A negative control without Aβ1-42 was prepared for each small molecule. 3-aminopyrazole trimer (Trimer) was tested in all assays to ascertain reproducibility between independent experiments. The solutions were then incubated for 24 h at 37° C., and the spectrofluorescence (relative fluorescence units; RFU) read in six replicates in black 384-well assay plates (Perkin-Elmer) on a Perkin-Elmer FluoroCount spectrofluorometer. Inhibition of aggregation is expressed as mean % inhibition±1 standard deviation (SD) according to the following equation: […]

The target of assay [3] is T3, Oregon Green labeled Aβ(1-42) (Homo sapiens, UniProt P05067).
T3 construct: DMSO-stock solutions of Oregon Green labeled Aβ(1-42) 1:1 with deionized water
T3 sequence (P05067 672-713 limits assumed): as above
The assay can be described thus: FCS-assay with 5 nM Oregon Green labeled Aβ-peptide (disaggregation of preformed aggregates). How it is done: In order to analyse the disaggregating properties of the compounds, preformed aggregates were used, which were induced straight before the FCS-measurement by diluting low concentrated (500 nM) DMSO-stock solutions of Oregon Green labeled Aβ(1-42) 1:1 with deionized water. The final concentration of Oregon Green labeled Aβ-peptide was 5 nM in 1×PBS and 3% DMSO.
To improve the reproducibility of the measurements of the concentration dependencies all samples were prepared fourfold.

Setting [4] is: read-out: Percentage of the “number of peaks” value compared to the control reaction without added ligand.
The mark [5] stands for this setting: read-out: Percentage of the “peaks × height“ value compared to the control reaction without added ligand.

Counter-ions that a name gives are not always drawn. Like-named read-outs stand apart in the source and are kept apart here.

T1 sequence (P05067 672-713 limits assumed): as above

With `Cc1ccc(-c2cc(NCCNc3cc(-c4ccc(C)cc4)[nH]n3)n[nH]2)cc1` [Compound 1d, N^1,N^2-bis(5-p-Tolyl-1H-pyrazol-3-yl)ethane-1,2-diamine bishydrochloride], in assay [1], the “% disaggregation” value turned out to be 77.1 ± 2.5%. The inhibition at 330 µM in assay [2] was determined as 88.3 ± 1%. Moreover, the values for the remaining activity at 0.2 µM in assay [3] (setting [4]) and in assay [3] (setting [5]) were 72.8% and 83.1%, respectively.
Turning to `Clc1ccc(-c2cc(NCCNc3cc(-c4cccs4)[nH]n3)n[nH]2)cc1` [Compound 1ah, N-(5-(4-Chlorophenyl)-1H-pyrazol-3-yl)-N′-(5-(thiophen-2-yl)-1H-pyrazol-3-yl)ethane-1,2-diamine bishydrochloride], the “% disaggregation” value in assay [1] stood at 88.8 ± 1.6%. In assay [2], this molecule yielded an inhibition at 330 µM of 89.1 ± 2.5%. Besides, in assay [3] (setting [4]), the remaining activity at 0.01 µM amounted to 44.4%, the remaining activity at 0.1 µM stood at 61.1%, the remaining activity at 0.2 µM was 60.8% and the remaining activity at 1 µM came out at 83.7%. Further, in assay [3] (setting [4]), the remaining activity at 5 µM was determined as 82.6%, the remaining activity at 25 µM was 75% and the remaining activity at 100 µM worked out at 40.9%. Besides, in assay [3] (setting [5]), the remaining activity at 0.01 µM stood at 38.9%, the remaining activity at 0.1 µM was 44.8%, the remaining activity at 0.2 µM is 69.3% and the remaining activity at 1 µM came to 136%. Further, in assay [3] (setting [5]), the remaining activity at 5 µM worked out at 112%, the remaining activity at 25 µM stood at 254% and the remaining activity at 100 µM is 143%.
Consider `Clc1ccc(-c2cc(NCCNc3cc(-c4ccc(Cl)cc4)[nH]n3)n[nH]2)cc1` [Compound 1f, N^1,N^2-bis(5-(4-Chlorophenyl)-1H-pyrazol-3-yl)ethane-1,2-diamine bishydrochloride], for which the “% disaggregation” value in assay [1] came out at 78.4 ± 1.7%. This molecule gave an inhibition at 330 µM in assay [2] of 86.5 ± 7.4%. Also, the remaining activity at 0.2 µM in assay [3] (setting [4]) was 55.9%; in assay [3] (setting [5]), 101%.
Consider `Brc1ccc(-c2cc(NCCNc3cc(-c4ccc(Br)cc4)[nH]n3)n[nH]2)cc1` [Compound 1u, N^1,N^2-bis(5-(4-Bromophenyl)-1H-pyrazol-3-yl)ethane-1,2-diamine bishydrochloride], for which, in assay [1], the “% disaggregation” value worked out at 78.8 ± 5.1%. In assay [2], this molecule registered an inhibition at 330 µM of 77.2 ± 1.5%. In assay [3] (setting [4]), the remaining activity at 0.2 µM is 58%, the remaining activity at 1 µM came to 60%, the remaining activity at 5 µM was 47.5% and the remaining activity at 25 µM was determined as 45%. Moreover, the remaining activity at 100 µM in assay [3] (setting [4]) worked out at 35%. Also, in assay [3] (setting [5]), the remaining activity at 0.2 µM stood at 59.2%, the remaining activity at 1 µM was 62.4%, the remaining activity at 5 µM amounted to 48% and the remaining activity at 25 µM came out at 49.2%. Further, the remaining activity at 100 µM in assay [3] (setting [5]) turned out to be 27.2%.
On to `Cc1ccc(-c2cc(NCCNc3cc(-c4cccs4)[nH]n3)n[nH]2)cc1` [Compound 1ab, N-(5-(Thiophen-2-yl)-1H-pyrazol-3-yl)-N′-(5-p-tolyl-1H-pyrazol-3-yl)ethane-1,2-diamine bishydrochloride], for which, in assay [1], the “% disaggregation” value turned out to be 78.0 ± 4.5%. The inhibition at 330 µM in assay [2] came out at 85 ± 8.6%. In addition, in assay [3] (setting [4]), the remaining activity at 0.01 µM was 55.6% and the remaining activity at 0.1 µM was 54.2%. In addition, in assay [3] (setting [5]), the remaining activity at 0.01 µM turned out to be 27% and the remaining activity at 0.1 µM is 51.4%.
For `Cc1ccc(-c2cc(NCCNc3cc(-c4ccc(Cl)cc4)[nH]n3)n[nH]2)cc1` [Compound 1ae, N-(5-(4-Chlorophenyl)-1H-pyrazol-3-yl)-N′-(5-p-tolyl-1H-pyrazol-3-yl)ethane-1,2-diamine bishydrochloride], the “% disaggregation” value in assay [1] is on record as 76.0 ± 2.1%. For the same molecule, testing at 330 µM in assay [2] gave an inhibition of 83.7 ± 1.7%. In assay [3] (setting [4]), the remaining activity at 0.01 µM turned out to be 72.3%, the remaining activity at 0.1 µM was 59.8% and the remaining activity at 0.2 µM amounted to 45.5%. Further, in assay [3] (setting [5]), the remaining activity at 0.01 µM came out at 65.5%, the remaining activity at 0.1 µM turned out to be 60.4% and the remaining activity at 0.2 µM was found to be 53.1%.

For orientation: inhibition means how much of the control response was suppressed.
